Measurements as given in publication PMC12521615, “Accurate affinity models for SH2 domains from peptide binding assays and free‐energy regression” (Protein Science : A Publication of the Protein Society, 2025).
pKd: −log10 of the molar value. Non-standard residues stand in square brackets, D forms with d. Residues, ends and D or L forms follow the SMILES beside them. pY = N[C@@H](Cc1ccc(OP(=O)(O)O)cc1)C(=O)O

Key:
c-Src SH2 domain = biological target: T1, c-Src SH2 domain (Homo sapiens, UniProt P12931); test: competitive fluorescence polarization, c-Src SH2 domain; type: binding; details: Table S3, unpaired validation; competition fluorescence polarization; probe FITC-Ahx-GDG-pY-EEISPLLL-NH2 30 nM; [SH2] 123-126 nM; mean
T1 construct: the SH2 domain from c‐Src kinase; His6-SUMO (N, cleaved yes); host or cells: Escherichia coli C43(DE3) with BirA helper plasmid
Description: Measured binding constants (K D) from competition mode fluorescence polarization experiments were obtained using the purified SH2 domains used for the selection and chosen sets of peptides with a phosphorylated tyrosine exactly as described previously (Li et al., [2023]). […] Before performing the competition mode fluorescence polarization measurement, the K D of the probes for the respective SH2 domains was first measured in a direct mode of fluorescence polarization. […] Using the validation data for the Fyn SH2 domain, the range of predicted relative binding affinities that corresponds to the range between 1 nM and 100 μM, which is the dynamic range of reliable measurement of absolute binding affinities using our competitive fluorescence polarization setup, was defined and used to further filter the set of candidate phosphopeptides. A subset that evenly covers the chosen range of predicted relative affinities was finally picked for the validation measurements of the Lyn SH2 domain.

Grb2 SH2 domain = Grb2 SH2 domain (Homo sapiens, UniProt P62993); test: biochemical
Description: Measured binding constants (K D) from competition mode fluorescence polarization experiments were obtained using the purified SH2 domains used for the selection and chosen sets of peptides with a phosphorylated tyrosine exactly as described previously (Li et al., [2023]). […] (c‐Src SH2 consensus) was used as the probe, and for the Grb2 SH2 domain, the fluorescently labeled peptide FITC‐Ahx‐FDDPS(pY)VNVQN (Ahx = 6‐aminohexanoic acid) from the Y177 phospho‐tyrosine site of BCR. Before performing the competition mode fluorescence polarization measurement, the K D of the probes for the respective SH2 domains was first measured in a direct mode of fluorescence polarization. […] For the set of peptides where single point mutations were compared, phosphopeptides reported in the PhosphoSitePlus database (Hornbeck et al., [2015]) and previously shown to bind to the c‐Src SH2 domain (Li et al., [2023]) were chosen alongside their respective single point mutants. To choose phosphopeptides for validation of the Lyn SH2 domain, we started from all verified phosphopeptides found in PhosphoSitePlus, filtered based on their co‐expression with the Lyn kinase using the STRING database. Using the validation data for the Fyn SH2 domain, the range of predicted relative binding affinities that corresponds to the range between 1 nM and 100 μM, which is the dynamic range of reliable measurement of absolute binding affinities using our competitive fluorescence polarization setup, was defined and used to further filter the set of candidate phosphopeptides. A subset that evenly covers the chosen range of predicted relative affinities was finally picked for the validation measurements of the Lyn SH2 domain. For the c‐Src, Yes, and Blk SH2 domains, a combination of the previously chosen peptides was used, after verifying that their predicted relative affinities for the given SH2 domain fell within the same measurable range. All peptides containing phosphorylated tyrosine, both fluorescently labeled and non‐labeled, were produced by SynPeptide (China).

Grb2 SH2 domain, sequence (P62993 60-152 limits assumed): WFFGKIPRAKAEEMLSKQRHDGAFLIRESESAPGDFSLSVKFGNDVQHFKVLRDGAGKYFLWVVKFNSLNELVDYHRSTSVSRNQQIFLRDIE
T1 sequence (P12931 151-248 limits assumed): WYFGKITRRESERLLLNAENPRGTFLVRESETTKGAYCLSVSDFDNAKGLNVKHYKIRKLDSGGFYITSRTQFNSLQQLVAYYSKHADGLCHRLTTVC

Structure (SMILES)	pKd (c-Src SH2 domain)	pKd (Grb2 SH2 domain)
CC(=O)N[C@@H](CCC(N)=O)C(=O)N[C@@H](CCCCN)C(=O)N[C@@H](CCC(=O)O)C(=O)N[C@@H](C)C(=O)N[C@@H](Cc1c[nH]cn1)C(=O)N[C@@H](Cc1c[nH]cn1)C(=O)N[C@@H](Cc1ccc(OP(=O)(O)O)cc1)C(=O)N[C@H](C(=O)N[C@@H](CC(N)=O)C(=O)N[C@@H](Cc1c[nH]c2ccccc12)C(=O)N[C@@H](CCCNC(=N)N)C(=O)N[C@H](C(=O)NCC(N)=O)[C@@H](C)O)C(C)C [Syn-G2-1] (Ac-QKEAHH[pY]VNWRTG-NH2)	5.02	7.50
CC(=O)N[C@@H](CCC(N)=O)C(=O)N[C@@H](Cc1c[nH]cn1)C(=O)N[C@@H](CCCNC(=N)N)C(=O)N[C@@H](CC(C)C)C(=O)N[C@@H](CC(N)=O)C(=O)N[C@@H](CC(N)=O)C(=O)N[C@@H](Cc1ccc(OP(=O)(O)O)cc1)C(=O)N[C@@H](CCC(=O)O)C(=O)N[C@@H](CC(N)=O)C(=O)N[C@@H](CC(N)=O)C(=O)N[C@@H](CCCNC(=N)N)C(=O)N[C@@H](CC(C)C)C(=O)NCC(N)=O [Syn-G2-6] (Ac-QHRLNN[pY]ENNRLG-NH2)		5.65
CC[C@H](C)[C@H](NC(=O)[C@H](CCC(N)=O)NC(C)=O)C(=O)N[C@@H](CCC(=O)O)C(=O)N[C@H](C(=O)NCC(=O)N[C@H](C(=O)N[C@@H](Cc1ccc(OP(=O)(O)O)cc1)C(=O)N[C@@H](CCC(N)=O)C(=O)N[C@@H](CC(N)=O)C(=O)N1CCC[C@H]1C(=O)N[C@@H](Cc1c[nH]cn1)C(=O)N[C@@H](CC(N)=O)C(=O)NCC(N)=O)[C@@H](C)O)C(C)C [Syn-G2-7] (Ac-QIEVGT[pY]QNPHNG-NH2)		5.49
